Where “and” joins values, the source holds several entries; their conditions need not be identical. Equal entries are not always repeated.
Legend:
Cryptococcus neoformans [1] = experiment: Antifungal activity against Cryptococcus neoformans KN99alpha assessed as fungal growth inhibition after 48 hrs by limiting dilution method; assay type: functional
[2] = Cytotoxicity against human HepDE19 cells incubated for 72 hrs by MTS assay; assay type: cell-based
[3] = Antifungal activity against Cryptococcus gattii RSA-3615 assessed as fungal growth inhibition after 48 hrs by limiting dilution method; assay type: functional, Cryptococcus gattii VGI
Cryptococcus neoformans [4] = experiment: Antifungal activity against fluconazole-resistant Cryptococcus neoformans DUMC-158.03 assessed as fungal growth inhibition after 48 hrs by limiting dilution method; assay type: functional

SMILES | MIC80 (Cryptococcus neoformans [1]) | CC50 at 72 h [2] | MIC80 [3] | MIC80 (Cryptococcus neoformans [4])
CC(C)C(C)Nc1ncnc(SC#N)c1[N+](=O)[O-] (stereo not drawn) | 3 µM and 0.8 µg/mL | – | – | –
N#CSc1ncnc(NCc2ccccc2)c1[N+](=O)[O-] | 2.34 µM and 0.66 µg/mL | 19.6 µM and 5.63 µg/mL | 1.17 µM and 0.33 µg/mL | 1.17 µM and 0.33 µg/mL
N#CSc1ncnc(N2CCCCC2)c1[N+](=O)[O-] | 2.34 µM and 0.61 µg/mL | 11.9 µM and 3.16 µg/mL | 1.17 µM and 0.3 µg/mL | 4.68 µM and 1.24 µg/mL
CC(C)Nc1nc(-c2ccccc2)nc(SC#N)c1[N+](=O)[O-] | 50 µM and 15.8 µg/mL | – | – | –
CSc1nc(NCCc2ccccc2)c([N+](=O)[O-])c(SC#N)n1 | 9.37 µM and 3.25 µg/mL | 15.4 µM and 5.35 µg/mL | 1.17 µM and 0.4 µg/mL | –
Cc1nc(NC2CCCC2)c([N+](=O)[O-])c(SC#N)n1 | 9 µM and 2.51 µg/mL | – | 2.34 µM and 0.65 µg/mL | –
Cc1nc(NCCc2ccccc2)c([N+](=O)[O-])c(SC#N)n1 | 50 µM and 15.8 µg/mL | 12.3 µM and 3.87 µg/mL | 2.34 µM and 0.73 µg/mL | –
COc1ncnc(SC#N)c1[N+](=O)[O-] | 9.37 µM and 1.98 µg/mL | – | > 25 µM and > 5.3 µg/mL | –
CC(C)Nc1ncnc(SC#N)c1[N+](=O)[O-] | 2.34 µM and 0.55 µg/mL | 12 µM and 2.87 µg/mL | 0.58 µM and 0.13 µg/mL | 2.34 µM and 0.55 µg/mL
CNc1nc(/C=C/c2ccccc2)nc(SC#N)c1[N+](=O)[O-] | > 50 µM and > 15.7 µg/mL | – | > 25 µM and > 7.83 µg/mL | –
N#CSc1ncnc(N2CCCCCCC2)c1[N+](=O)[O-] | 4.68 µM and 1.37 µg/mL | – | 2.34 µM and 0.68 µg/mL | –
Cc1nc(NC2CCCCC2)c([N+](=O)[O-])c(SC#N)n1 | > 50 µM and > 24.6 µg/mL | – | > 25 µM and > 12.3 µg/mL | –
Cc1nc(SC#N)c([N+](=O)[O-])c(N2CCCCCC2)n1 | 18.8 µM and 5.49 µg/mL | – | 4.68 µM and 1.37 µg/mL | –
Cc1nc(SC#N)c([N+](=O)[O-])c(N2CCCC2)n1 | 4.68 µM and 1.23 µg/mL | – | 1.17 µM and 0.3 µg/mL | –
CC1CCCC(C)N1c1ncnc(SC#N)c1[N+](=O)[O-] (stereo not drawn) | 9.37 µM and 2.74 µg/mL | – | 15.6 µM and 4.58 µg/mL | –
Cc1nc(OC(C)C)c([N+](=O)[O-])c(SC#N)n1 | 1 µM and 0.25 µg/mL | 14.6 µM and 3.71 µg/mL | 1.17 µM and 0.29 µg/mL | 1.17 µM and 0.29 µg/mL
N#CSc1ncnc(N)c1[N+](=O)[O-] | 4.68 µM and 0.92 µg/mL | – | 1.17 µM and 0.22 µg/mL | –
Cc1nc(SC#N)c([N+](=O)[O-])c(N2CCCCCCC2)n1 | 18.8 µM and 5.76 µg/mL | – | 2.34 µM and 0.71 µg/mL | –
CN(C)c1ncnc(SC#N)c1[N+](=O)[O-] | 4.68 µM and 1.05 µg/mL | – | 1.17 µM and 0.26 µg/mL | –
CCN(c1ncnc(SC#N)c1[N+](=O)[O-])C(C)C | 4.55 µM and 1.4 µg/mL | 10.7 µM and 2.86 µg/mL | 1.17 µM and 0.3 µg/mL | –
Cc1nc(SC#N)c([N+](=O)[O-])c(N2CCCCC2C)n1 (stereo not drawn) | 18.8 µM and 5.49 µg/mL | – | 0.58 µM and 0.16 µg/mL | –
CSc1nc(NCc2ccc(C)cc2)c([N+](=O)[O-])c(SC#N)n1 | 9.37 µM and 3.25 µg/mL | 19.2 µM and 6.67 µg/mL | 4.68 µM and 1.62 µg/mL | –
Cc1nc(NCc2ccccc2)c([N+](=O)[O-])c(SC#N)n1 | 50 µM and 15.1 µg/mL | 15.9 µM and 4.78 µg/mL | 18.8 µM and 5.64 µg/mL | –
CN(Cc1ccccc1)c1ncnc(SC#N)c1[N+](=O)[O-] | 2.34 µM and 0.7 µg/mL | 18.8 µM and 5.66 µg/mL | 1.17 µM and 0.35 µg/mL | –

SMILES | MIC80 (Cryptococcus neoformans [1]) | CC50 at 72 h [2] | MIC80 [3] | MIC80 (Cryptococcus neoformans [4])
CC(C)Oc1ncnc(SC#N)c1[N+](=O)[O-] | 1.9 µM and 0.45 µg/mL | 23.3 µM and 5.6 µg/mL | 1.17 µM and 0.27 µg/mL | –
CCCOc1ncnc(SC#N)c1[N+](=O)[O-] | 3.9 µM and 0.93 µg/mL | 31.8 µM and 7.64 µg/mL | 4.68 µM and 1.12 µg/mL | –
N#CSc1ncnc(N2CCCCCC2)c1[N+](=O)[O-] | 2.34 µM and 0.65 µg/mL | 17.7 µM and 4.94 µg/mL | 2.34 µM and 0.65 µg/mL | 2.34 µM and 0.65 µg/mL
N#CSc1ncnc(NCCc2ccccc2)c1[N+](=O)[O-] | 3.51 µM and 1.05 µg/mL | 15.1 µM and 4.55 µg/mL | 2.34 µM and 0.7 µg/mL | –
CC1CCCCN1c1ncnc(SC#N)c1[N+](=O)[O-] (stereo not drawn) | 9.37 µM and 2.61 µg/mL | – | 1.17 µM and 0.32 µg/mL | –
CC1CC(C)CN(c2ncnc(SC#N)c2[N+](=O)[O-])C1 (stereo not drawn) | 2.34 µM and 0.68 µg/mL | 33.6 µM and 9.86 µg/mL | 9.37 µM and 2.74 µg/mL | –
CSc1nc(NCc2ccccc2)c([N+](=O)[O-])c(SC#N)n1 | 4.68 µM and 1.56 µg/mL | 18.6 µM and 6.2 µg/mL | 4.68 µM and 1.56 µg/mL | –
Cc1nc(SC#N)c([N+](=O)[O-])c(N2CC(C)CC(C)C2)n1 (stereo not drawn) | 18.8 µM and 5.76 µg/mL | – | 9.37 µM and 2.88 µg/mL | –
CCOc1nc(C)nc(SC#N)c1[N+](=O)[O-] | 1.17 µM and 0.27 µg/mL | 19.8 µM and 4.76 µg/mL | 0.29 µM and 0.06 µg/mL | 2.34 µM and 0.56 µg/mL
N#CSc1ncnc(NCc2cccc(C(F)(F)F)c2)c1[N+](=O)[O-] | 9.37 µM and 3.32 µg/mL | 25.9 µM and 9.21 µg/mL | 4.68 µM and 1.66 µg/mL | –
CN(c1ncnc(SC#N)c1[N+](=O)[O-])C1CCCCC1 | 6 µM and 1.76 µg/mL | 25.3 µM and 7.42 µg/mL | 4.68 µM and 1.37 µg/mL | –
CNc1nc(C)nc(SC#N)c1[N+](=O)[O-] | 2.34 µM and 0.52 µg/mL | > 100 µM and > 22.5 µg/mL | 1.17 µM and 0.26 µg/mL | 2.34 µM and 0.52 µg/mL
N#CSc1ncnc(NC2CCCC2)c1[N+](=O)[O-] | 4.9 µM and 1.29 µg/mL | – | 1.17 µM and 0.3 µg/mL | 2.34 µM and 0.62 µg/mL
N#CSc1ncnc(NC2CCCCC2)c1[N+](=O)[O-] | 6 µM and 1.67 µg/mL | – | 1.17 µM and 0.32 µg/mL | –
Cc1nc(N)c([N+](=O)[O-])c(SC#N)n1 | 2.34 µM and 0.48 µg/mL | 24.5 µM and 5.17 µg/mL | 0.58 µM and 0.12 µg/mL | 2.34 µM and 0.49 µg/mL
CC(C)N(Cc1ccccc1)c1ncnc(SC#N)c1[N+](=O)[O-] | > 50 µM and > 16.5 µg/mL | – | > 25 µM and > 8.23 µg/mL | –
CCN(CC)c1nc(C)nc(SC#N)c1[N+](=O)[O-] | 9.37 µM and 2.5 µg/mL | – | 2.34 µM and 0.62 µg/mL | –
Cc1nc(SC#N)c([N+](=O)[O-])c(N(C)C)n1 | 4.68 µM and 1.11 µg/mL | – | 2.34 µM and 0.55 µg/mL | –
CCC(CC)Nc1ncnc(SC#N)c1[N+](=O)[O-] | 18.5 µM and 4.94 µg/mL | – | > 25 µM and > 6.68 µg/mL | –
CCN(CC)c1ncnc(SC#N)c1[N+](=O)[O-] | 9.37 µM and 2.37 µg/mL | – | 0.14 µM and 0.03 µg/mL | –
CCCOc1nc(C)nc(SC#N)c1[N+](=O)[O-] | 0.6 µM and 0.15 µg/mL | 15.8 µM and 4.02 µg/mL | 1.17 µM and 0.29 µg/mL | 1.17 µM and 0.29 µg/mL
CCC(CC)Nc1nc(C)nc(SC#N)c1[N+](=O)[O-] | 9 µM and 2.53 µg/mL | – | 9.37 µM and 2.63 µg/mL | –
N#CSc1ncnc(NCc2ccc(Cl)cc2)c1[N+](=O)[O-] | 5.85 µM and 1.88 µg/mL | 22.5 µM and 7.25 µg/mL | 1.17 µM and 0.37 µg/mL | –
Cc1ccc(CNc2nc(C)nc(SC#N)c2[N+](=O)[O-])cc1 | 50 µM and 15.8 µg/mL | 14.7 µM and 4.65 µg/mL | 1.17 µM and 0.36 µg/mL | –

— ChEMBL document CHEMBL4706747, “Discovery of 5-Nitro-6-thiocyanatopyrimidines as Inhibitors of Cryptococcus neoformans and Cryptococcus gattii” (ACS Med Chem Lett, 2021)
